Results: ChEMBL document CHEMBL1201862, “PubChem BioAssay data set” (2004)
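The compound was tested at five concentrations on cells cultured in 96-well plates, with a 48-hour exposure period. GI50 is the concentration that inhibits growth by half.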 Active and inactive are the calls of the source. Cut-off read from the data, not from the text of the source: active = GI50 up to about 1.1 µM and inactive = higher.

Columns and labels:
Assay in all cases: NCI anticancer screen, dose series, 48 h
[1] = test system: CAKI-1
[2] = test system: COLO 205
[3] = test system: EKVX
[4] = test system: HCC 2998
[5] = test system: HOP-92
[6] = test system: M14
[7] = test system: MCF7
[8] = test system: MOLT-4
[9] = test system: NCI-H226
[10] = test system: OVCAR-5
[11] = test system: SF-295
[12] = test system: SF-539
[13] = test system: SNB-19
[14] = test system: SW-620
[15] = test system: TK-10
[16] = test system: HOP-62
[17] = test system: OVCAR-3
[18] = test system: PC-3
[19] = test system: SK-MEL-2
[20] = test system: UACC-62

Measured: GI50

CCC(c1ccc(N(C)C)cc1)C1NC(=S)NC1=O (centres undefined)
inactive: [1] > 100 µM | [2] 98.2 µM | [3] 51.5 µM | [4] > 100 µM | [5] > 100 µM | [6] 74.8 µM | [7] > 100 µM | [8] 30.7 µM | [9] 87.3 µM | [10] > 100 µM | [11] 67.9 µM | [12] > 100 µM | [13] > 100 µM | [14] 68.9 µM | [15] 85.5 µM

COC(=O)c1c(C(=O)OC)c2ccccn2c1-c1cc(OC)c(Br)c(=O)o1
inactive: [2] > 100 µM | [3] > 100 µM | [4] > 100 µM | [16] > 100 µM | [6] > 100 µM | [8] > 100 µM | [9] > 100 µM | [17] > 100 µM | [10] > 100 µM | [18] > 100 µM | [11] > 100 µM | [12] 56.8 µM | [19] > 100 µM | [13] > 100 µM | [14] > 100 µM | [15] > 100 µM | [20] > 100 µM

COc1ccc2c(c1)[n+]([O-])c(C(=O)CC(=O)C(=O)Nc1cccc(Cl)c1C)c(C)[n+]2[O-]
inactive: [1] > 100 µM | [2] 53.7 µM | [3] > 100 µM | [4] > 100 µM | [16] > 100 µM | [5] > 100 µM | [6] > 100 µM | [8] 49.4 µM | [9] > 100 µM | [17] 27.3 µM | [10] > 100 µM | [11] > 100 µM | [12] > 100 µM | [19] > 100 µM | [13] > 100 µM | [14] 68.9 µM | [15] > 100 µM | [20] > 100 µM

O=c1c2ccc(Br)cc2nc(-c2ccccc2)n1NC1OC(CO)C(O)C(O)C1O (centres undefined)
inactive: [1] > 100 µM | [2] > 100 µM | [3] > 100 µM | [4] > 100 µM | [16] 59.3 µM | [5] > 100 µM | [6] > 100 µM | [8] 57.3 µM | [9] > 100 µM | [17] > 100 µM | [10] > 100 µM | [11] > 100 µM | [12] > 100 µM | [19] > 100 µM | [13] > 100 µM | [14] > 100 µM | [15] > 100 µM | [20] > 100 µM

CCCCCC1C2C(=O)NC(=O)C1C(=O)NC2=O (centres undefined)
inactive: [1] > 100 µM | [2] > 100 µM | [3] > 100 µM | [4] > 100 µM | [16] > 100 µM | [5] > 100 µM | [6] > 100 µM | [8] > 100 µM | [9] > 100 µM | [17] > 100 µM | [10] > 100 µM | [11] > 100 µM | [12] > 100 µM | [19] > 100 µM | [13] > 100 µM | [14] > 100 µM | [15] > 100 µM | [20] > 100 µM

Cc1ccccc1/N=C/c1ccc(N(CCC#N)S(=O)(=O)c2ccccc2)cc1
inactive: [1] > 100 µM | [2] > 100 µM | [3] > 100 µM | [4] > 100 µM | [16] > 100 µM | [5] > 100 µM | [6] > 100 µM | [8] > 100 µM | [9] > 100 µM | [17] > 100 µM | [10] > 100 µM | [11] > 100 µM | [12] > 100 µM | [19] > 100 µM | [13] > 100 µM | [14] > 100 µM | [15] > 100 µM | [20] > 100 µM
